Source: patent publication US20240279233A1, “MACROCYCLIC TAK1 INHIBITORS” (Aqilion AB, priority 2021, published 2024)

biological target: human recombinant TAK1-TAB1 Kinase (TAK1 (1-303) and TAB1 (437-end)) (Homo sapiens (Human), UniProt O43318); experiment: TAK1 biochemical ADP-Glo kinase assay; settings: 10 μM ATP, MBP substrate; read-out: TAK1 Mean IC50 (nM) @ 10 μM ATP
Protocol: The usefulness of the example compounds of the invention as TAK1 inhibitors was evaluated in a biochemical ADP-Glo kinase assay. Assay kits from Promega Corporation V4089 were used according to manufacturer's instructions and adapted as outlined here. ADP-Glo Kinase Assay kit contains ADP-Glo Reagent, Kinase Detection Reagent, kinase detection buffer, ATP, and ADP. The Kinase Enzyme Systems include human recombinant TAK1-TAB1 Kinase (TAK1 (1-303) and TAB1 (437-end)), Native Swine Myelin Basic Protein (MBP) substrate, 5×kinase reaction buffer, and DTT.
Test compounds were prepared in 1:5 serial dilutions at 8 concentrations in DMSO from 10 mM stock solutions. An additional 20-fold dilution in 1× kinase reaction buffer (see below) was performed, yielding a final dilution series in kinase buffer with 5% DMSO (final concentration in assay from 20 μM to 0.26 nM, 1% DMSO). As controls, Takinib was prepared as positive control (3 μM final in assay), and DMSO without inhibitor served as negative control, at a final assay concentration of DMSO of 1%.
One μl of compound solution in 5% DMSO was added to each well in a 384 well microtiter plate (OptiPlate #6007290). Two μl TAK1-TAB1 (7.5 ng/μl) in lxkinase reaction buffer ([…] Tris base pH 7.5, 20 mM MgCl2, 50 μM DTT, 0.1 mg/ml BSA) was added and pre-incubated 10 min before adding 2 μl of a mixture of MBP substrate and ATP (0.25 μg/μL MBP/25 μM ATP or 0.25 μg/μL MBP/2.5 mM ATP) in 1× kinase reaction buffer (as above). The plate was subsequently incubated at room temperature for 1 hour. Then 5 μl ADP-Glo™ reagent from ADP-Glo™ kit (as above) was added and incubated for 40 min to stop the reaction and consume remaining ATP. Ten μl kinase detection substrate (dissolved in kinase detection buffer, both from ADP-Glo™ kit as above) was then added to convert ADP to ATP and detect ATP with luciferase/luciferin. The plate was incubated for 30 minutes at room temperature in dark before reading luminescence on an Envision (PerkinElmer) reader.
IC50 values of compounds of the invention were determined by the non-linear regression analysis of dose response curves.

human recombinant TAK1-TAB1 Kinase (TAK1 (1-303) and TAB1 (437-end)), sequence (O43318 other isoform, or with tags, fused parts or gaps): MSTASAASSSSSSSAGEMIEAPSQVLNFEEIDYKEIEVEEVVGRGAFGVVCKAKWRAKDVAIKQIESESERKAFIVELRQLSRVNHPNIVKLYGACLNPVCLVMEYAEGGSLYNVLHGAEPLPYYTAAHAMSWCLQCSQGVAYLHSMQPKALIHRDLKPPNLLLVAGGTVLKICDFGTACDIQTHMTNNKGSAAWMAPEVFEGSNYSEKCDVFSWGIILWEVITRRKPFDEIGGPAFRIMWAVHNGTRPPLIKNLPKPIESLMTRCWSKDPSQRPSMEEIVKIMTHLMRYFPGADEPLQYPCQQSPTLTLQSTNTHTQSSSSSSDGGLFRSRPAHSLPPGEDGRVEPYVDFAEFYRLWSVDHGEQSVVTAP

SMILES	IC50 [nM]
CC1CCCCNC(=O)c2cccc(c2)C(=O)/N=C2\Nc3cccc(-c4cc[nH]c(=O)c4)c3N21 (single isomer, unassigned) [Example 62, (E)-11-methyl-1^7-(2-oxo-1,2-dihydropyridin-4-yl)-1^2,1^3-dihydro-1^1H-2,6-diaza-1(2,1)-benzo[d]imidazola-4(1,3)-benzenacycloundecaphane-3,5-dione]	12
C[C@H]1CCCCNC(=O)c2cccc(c2)C(=O)/N=C2\Nc3cccc(C(=O)N4CCC5(CCO5)C4)c3N21 (single isomer, unassigned) [Example 121]	5
CC1CCCCNC(=O)c2cccc(c2)C(=O)/N=C2\Nc3cccc(C4CCCNC4=O)c3N21 (single isomer, unassigned) [Example 60, (E)-11-methyl-1^7-(2-oxopiperidin-3-yl)-1^2,1^3-dihydro-1^1H-2,6-diaza-1(2,1)-benzo[d]imidazola-4(1,3)-benzenacycloundecaphane-3,5-dione]	5
CC1CCCCNC(=O)c2cccc(c2)C(=O)/N=C2\Nc3cccc(C(=O)N4CC[C@H](F)C4)c3N21 (single isomer, unassigned) [Example 88]	9
C[C@H]1CCCCNC(=O)c2cccc(c2)C(=O)/N=C2\Nc3cc(CN4CCN(C)CC4)cc(C(=O)N(C)C)c3N21 [Example 124, (S,E)-N,N,11-trimethyl-1^5-((4-methylpiperazin-1-yl)methyl)-3,5-dioxo-1^2,1^3-dihydro-1^1H-2,6-diaza-1(2,1)-benzo[d]imidazola-4(1,3)-benzenacycloundecaphane-1^7-carboxamide]	7
CC1CCCCNC(=O)c2cccc(c2)C(=O)/N=C2\Nc3cccc(C(=O)N4CCOC[C@@H]4C)c3N21 (single isomer, unassigned) [Example 77]	5
CC1CCCCNC(=O)c2cccc(c2)C(=O)/N=C2\Nc3cccc(C(=O)N4CC(F)(F)C4)c3N21 (stereo not shown) [Example 40, (E)-1^7-(3,3-difluoroazetidine-1-carbonyl)-11-methyl-1^2,1^3-dihydro-1^1H-2,6-diaza-1(2,1)-benzo[d]imidazola-4(1,3)-benzenacycloundecaphane-3,5-dione]	3
CC1CCCNC(=O)c2cccc(c2)C(=O)Nc2nc3cccc(C(=O)N(C)C)c3n2C1 (stereo not shown) [Example 52, (E)-N,N,10-trimethyl-3,5-dioxo-1^2,1^3-dihydro-1^1H-2,6-diaza-1(2,1)-benzo[d]imidazola-4(1,3)-benzenacycloundecaphane-1^7-carboxamide]	63
COC1CN(C(=O)c2cccc3c2N2/C(=N/C(=O)c4cccc(c4)C(=O)NCCCCC2C)N3)C1 (single isomer, unassigned) [Example 81, (E)-1^7-(3-methoxyazetidine-1-carbonyl)-11-methyl-1^2,1^3-dihydro-1^1H-2,6-diaza-1(2,1)-benzo[d]imidazola-4(1,3)-benzenacycloundecaphane-3,5-dione]	6

same assay, conditions: 1 mM ATP, MBP substrate; read-out: TAK1 Mean IC50 (nM) @ 1 mM ATP

SMILES	IC50 [nM]
C[C@H]1CCCCNC(=O)c2cccc(c2)C(=O)/N=C2\Nc3cccc(C(=O)N4CCC5(CCO5)C4)c3N21 (single isomer, unassigned) [Example 121]	19
[2H]C([2H])([2H])N(C(=O)c1cccc2c1N1/C(=N/C(=O)c3cccc(c3)C(=O)NCCCC[C@@H]1C)N2)C([2H])([2H])[2H] [Example 118, (S,E)-11-methyl-N,N-bis(methyl-d3)-3,5-dioxo-1^2,1^3-dihydro-1^1H-2,6-diaza-1(2,1)-benzo[d]imidazola-4(1,3)-benzenacycloundecaphane-1^7-carboxamide]	15
CC1CCCCNC(=O)c2nc(cs2)C(=O)/N=C2\Nc3cccc(C(=O)N(C)C)c3N21 (single isomer, unassigned) [Example 108, (1^2Z,4^2E)-N,N,5-trimethyl-2,11-dioxo-4^2,4^3-dihydro-4^1H-3,10-diaza-1(4,2)-thiazola-4(2,1)-benzo[d]imidazolacycloundecaphane-4^7-carboxamide]	23
C[C@H]1CCCCNC(=O)c2cccc(c2)C(=O)/N=C2\Nc3cc(CN4CCN(C)CC4)cc(C(=O)N(C)C)c3N21 [Example 124, (S,E)-N,N,11-trimethyl-1^5-((4-methylpiperazin-1-yl)methyl)-3,5-dioxo-1^2,1^3-dihydro-1^1H-2,6-diaza-1(2,1)-benzo[d]imidazola-4(1,3)-benzenacycloundecaphane-1^7-carboxamide]	9
